Test results: patent US8697710B2, “Optionally substituted 3-amino-4-(thioxo or imino)-4,5-dihydro-2H-pyrazolo [3,4-d]pyrimidin-6(7H)-ones” (Intra-Cellular Therapies, Inc., priority 2008, dated 2014)

Biological target: Phosphodiesterase 1B (PDE1B)
Assay: Measurement of PDE1B inhibition in vitro using IMAP phosphodiesterase assay kit
Assay type: biochemical, bovine
Conditions: PDE1 inhibitory activity, IMAP fluorescence polarization, cGMP-fluorescein substrate
Excerpt: Measurement of PDE1B Inhibition in Vitro Using IMAP Phosphodiesterase Assay Kit
Phosphodiesterase 1B (PDE1B) is a calcium/calmodulin dependent phosphodiesterase enzyme that converts cyclic guanosine monophosphate (cGMP) to 5′-guanosine monophosphate (5′-GMP). PDE can also convert a modified cGMP substrate, such as the fluorescent molecule cGMP-fluorescein, to the corresponding GMP-fluorescein. The generation of GMP-fluorescein from cGMP-fluorescein can be quantitated, using, for example, the IMAP (Molecular Devices, Sunnyvale, Calif.) immobilized-metal affinity particle reagent.
Briefly, the IMAP reagent binds with high affinity to the free 5′-phosphate that is found in GMP-fluorescein and not in cGMP-fluorescein. […] Small fluorophores that are bound up in a large, slowly tumbling, complex can be distinguished from unbound fluorophores, because the photons emitted as they fluoresce retain the same polarity as the photons used to excite the fluorescence.
In the phosphodiesterase assay, cGMP-fluorescein, which cannot be bound to IMAP, and therefore retains little fluorescence polarization, is converted to GMP-fluorescein, which, when bound to IMAP, yields a large increase in fluorescence polarization (Δmp). Inhibition of phosphodiesterase, therefore, is detected as a decrease in Δmp. […]
A decrease in GMP concentration, measured as decreased Δmp, is indicative of inhibition of PDE activity.

IC50: < 0.2 µM
SMILES: C/N=c1/c2c(Nc3ccccc3)n(Cc3ccc(-c4ccccn4)cc3)nc2n(CC(C)C)c(=O)n1C [Example 2, 7-Isobutyl-5-methyl-4-(methylimino)-3-(phenylamino)-2-(4-(pyridin-2-yl)benzyl)-4,5-dihydro-2H-pyrazolo[3,4-d]pyrimidin-6(7H)-one]
